Test results reported in patent US20250195528A1, “DOSE REGIMEN OF VICASINABIN” (Hoffmann-La Roche Inc., priority 2022, published 2025).
“Also recorded” adds a separate entry of the source. Read-outs that look alike come from different tables or passages of the source.

Key:
[1] = system: 15-lipoxygenase, MAGL, diacylglycerol lipase, or FAAH enzymes; assay: Functional cellular assays, enzymes of the endocannabinoid pathway; assay type: cell-based; details: up to 500 μM in human targets
[2] = target: T1, human CB2 (Homo sapiens, UniProt P34972); assay: Forskolin-stimulated cAMP inhibition in stably transfected CHO cells; assay type: cell-based; details: for Emax: CHO, normalized to 10 μM CP55′940; for IC50: IC50 ± SE (nM), CHO cells
T1 construct: expressed in transfected cells; host or cells: CHO cells
T1 sequence (P34972 whole entry): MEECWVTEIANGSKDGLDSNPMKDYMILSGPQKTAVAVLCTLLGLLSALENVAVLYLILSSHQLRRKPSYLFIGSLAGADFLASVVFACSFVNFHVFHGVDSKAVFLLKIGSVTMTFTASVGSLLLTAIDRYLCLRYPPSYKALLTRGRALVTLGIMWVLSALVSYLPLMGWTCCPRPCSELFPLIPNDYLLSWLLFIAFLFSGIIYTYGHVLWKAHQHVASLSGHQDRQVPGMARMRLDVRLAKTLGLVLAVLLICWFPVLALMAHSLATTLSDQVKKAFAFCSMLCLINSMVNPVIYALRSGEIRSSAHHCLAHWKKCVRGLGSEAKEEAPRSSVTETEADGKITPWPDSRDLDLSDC
From the text: (§1) Inhibition of cAMP accumulation in Chinese hamster ovary cells stably expressing recombinant CB2 was used to determine the functional potency of RO6868847 for different CB2 species and the selectivity over the closely related CB1.

[3] = target: T2, rat CB2 (Rattus norvegicus, UniProt Q9QZN9); assay: as above; assay type: cell-based
T2 construct: expressed in transfected cells; host or cells: CHO cells
T2 sequence (Q9QZN9 1-360): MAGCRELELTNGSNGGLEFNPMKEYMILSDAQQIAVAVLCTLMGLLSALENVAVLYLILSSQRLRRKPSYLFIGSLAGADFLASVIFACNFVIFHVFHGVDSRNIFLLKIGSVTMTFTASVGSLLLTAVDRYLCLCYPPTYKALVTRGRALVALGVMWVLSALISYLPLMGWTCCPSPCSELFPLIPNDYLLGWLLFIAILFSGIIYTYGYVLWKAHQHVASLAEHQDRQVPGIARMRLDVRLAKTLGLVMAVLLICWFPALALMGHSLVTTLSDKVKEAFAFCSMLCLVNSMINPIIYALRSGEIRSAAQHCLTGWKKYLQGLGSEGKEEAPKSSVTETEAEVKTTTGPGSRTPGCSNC
From the text: as §1

[4] = Study BP40387 Part 3 (MAD) pharmacokinetics, once daily for 14 days;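 note: phase I trial BP40387 in healthy male and female volunteers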
Procedure: Study BP40387 was a Phase I study that was conducted in healthy male and female participants, and included 5 parts. Part 1 (SAD) consisted of an adaptive, single-ascending-dose, investigator/participant-blind, randomized, placebo-controlled, parallel study to investigate the safety, tolerability, and pharmacokinetics of RO6868847. Part 2 (FE), was designed as an open-label, randomized, two-period crossover, single dose investigation of the effect of food on the pharmacokinetics of RO6868847. Part 3 (MAD), was an adaptive, multiple-ascending-dose, investigator/participant-blind, randomized, placebo-controlled, parallel study to investigate the safety, tolerability, and pharmacokinetics of RO6868847 administered once-daily for 14 days. Part 4 (DDI-CYP Induction), was a non-randomized, open-label, fixed-sequence, two-period study to explore RO6868847-mediated CYP induction at 300 mg administered once-daily for 14 days, using midazolam, repaglinide, and bupropion as probe substrates for CYP3A, CYP2C8, and CYP2B6, respectively. […] Overall, in Part 1 (SAD), a total of 33 healthy participants received single oral doses of RO6868847 ranging between 0.75 mg and 300 mg, and 12 participants received placebo under fasting conditions. In Part 2 (FE), 8 participants received a single oral dose of 100 mg RO6868847 once after an overnight fast of at least 10 hours and once within 30 minutes after starting a high-calorie, high-fat breakfast. In Part 3 (MAD), a total of 30 participants received multiple oral doses of 6 mg to 300 mg RO6868847 QD for 14 days, and 10 participants received placebo.

[5] = system: leukostasis in the eye; assay: Leukostasis in the eye, rodent diabetic and non-diabetic model; assay type: in vivo
Procedure: (§2) Pharmacological studies were performed in vitro and in vivo to investigate the potency, selectivity and activity of RO6868847. Pharmacological effects were determined in vivo in two different diabetic animal models which include the streptozotocin (STZ)-induced rat Type 1 diabetes and genetic Type 2 diabetes mouse models as well as in two acute models with acute inflammatory stimulus (LPS-injections) or laser injury (CNV). Additional in vitro pharmacology studies were performed to explore the pharmacological effect of RO6868847 and the suitability of the assays as biomarkers of target engagement and pharmacodynamic effect (PD) in human whole blood obtained from either healthy volunteers or diabetic patients.
(§3) The diversity of the tested models (including acute challenge versus disease-modifying models) and the absence of a recommended nonclinical DME/DR model with proven clinical translatability presents a challenge for the estimation of pharmacologically active exposure in humans.

[6] = Stability of drug substance; assay type: physicochemical
Procedure: (§4) For Phase I, film-coated tablets for oral administration containing 0.05, 0.75, 10, or 100 mg of RO6868847 drug substance were developed for clinical use. Three placebo film-coated tablets were formulated to match the active film-coated tablets in size and in appearance: one size to match the active 0.05 and 0.75 mg film-coated tablets and one size each to match the active 10 and 100 mg film-coated tablets.

[7] = target: T3, cynomolgus monkey CB2 (Macaca fascicularis, UniProt G7NVV5); assay: Forskolin-stimulated cAMP inhibition in stably transfected CHO cells; assay type: cell-based
T3 sequence (G7NVV5 1-360): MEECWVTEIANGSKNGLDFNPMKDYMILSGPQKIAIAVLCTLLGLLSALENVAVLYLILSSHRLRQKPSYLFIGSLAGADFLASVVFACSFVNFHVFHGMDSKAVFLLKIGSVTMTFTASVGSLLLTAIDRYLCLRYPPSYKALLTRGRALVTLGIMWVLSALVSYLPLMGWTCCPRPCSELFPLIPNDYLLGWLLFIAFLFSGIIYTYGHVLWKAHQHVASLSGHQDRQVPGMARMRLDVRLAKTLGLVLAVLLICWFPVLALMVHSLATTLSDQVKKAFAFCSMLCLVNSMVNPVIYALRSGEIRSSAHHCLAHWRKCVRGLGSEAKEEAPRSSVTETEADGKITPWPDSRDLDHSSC
From the text: Inhibition of cAMP accumulation in Chinese hamster ovary cells stably expressing recombinant CB2 was used to determine the functional potency of RO6868847 for different CB2 species and the selectivity over the closely related CB1. […] Table 4 summarizes the potency from different CB2 species.

[8] = target: human CB1 (Homo sapiens, UniProt P21554); assay: Human CB1 binding assay
Sequence of human CB1 (P21554 whole entry): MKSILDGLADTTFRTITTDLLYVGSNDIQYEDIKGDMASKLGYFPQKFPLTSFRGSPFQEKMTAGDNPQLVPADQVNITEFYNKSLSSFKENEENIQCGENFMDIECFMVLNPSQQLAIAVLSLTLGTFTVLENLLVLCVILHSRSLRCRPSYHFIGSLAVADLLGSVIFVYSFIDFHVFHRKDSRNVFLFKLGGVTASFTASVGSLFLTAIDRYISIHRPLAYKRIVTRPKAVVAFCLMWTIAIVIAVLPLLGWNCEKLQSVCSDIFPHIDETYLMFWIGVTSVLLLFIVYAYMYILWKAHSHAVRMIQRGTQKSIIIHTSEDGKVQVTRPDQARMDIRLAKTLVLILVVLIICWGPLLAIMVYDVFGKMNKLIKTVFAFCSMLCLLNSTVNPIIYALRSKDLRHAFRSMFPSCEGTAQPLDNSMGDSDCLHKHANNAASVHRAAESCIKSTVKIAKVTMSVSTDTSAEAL

[9] = system: 15-lipoxygenase, MAGL, diacylglycerol lipase, or FAAH enzymes; assay: Functional cellular assays, enzymes of the endocannabinoid pathway; assay type: cell-based; details: 10 μM in mouse
[10] = Study BP40387 Part 2 (FE) food effect on pharmacokinetics; assay type: in vivo, human; details: for Tmax: both sexes, human, plasma, oral, 100 mg single dose, read-out: Median Tmax
From the text: In Part 2 (FE) of Study BP40387, consistent with delayed gastric emptying due to an extended meal, the time to reach peak plasma concentration (Tmax) was slightly longer following dosing after a high fat, high calorie breakfast. […] Single Dose Urine Pharmacokinetics

[11] = system: laser-induced neovascularization; assay type: in vivo, rat
Procedure: as §2, §3
Exposure was derived from satellite animals or extrapolated from previous PK or PD studies in the same species.
(§5) Based on this integrated assessment, the pharmacologically active exposure range observed in rats spans 2 logs, with an upper bound (unbound AUC0-24 [S-epimer]=546 ng·hr/mL) corresponding to the full effect at 10 mg/kg in a rat STZ-induced Type 1 diabetes model and the lower bound (unbound AUC0-24 [S-epimer]=2.8 ng·hr/mL) corresponding to 50% decrease in disease marker (hypoerfluorescence area) in a laser-induced NV rat model.

[12] = Study BP40387 Part 1 (SAD) pharmacokinetics, healthy participants; assay type: in vivo, human; details: single and multiple dose, on average
[13] = target: T3, cynomolgus monkey CB2; assay: Radioligand binding to CB2, CHO cells
[14] = target: T4, CB2 (Rattus norvegicus, UniProt Q9QZN9); assay: In vitro rat Ki; assay type: binding
T4 sequence (Q9QZN9 1-360): T2 sequence (Q9QZN9 1-360)
From the text: FIG. 10 illustrates Disease Markers versus Free Exposure of the Active S-Epimer RO6868847 in Several Animal Models. […] Disease markers (hyperfluorescence area in mm^2, OD retina-plasma fluorescein ratio, number of leukocytes per mm^2 or total length of processes in mm) as a percent of the control value (100% represents the vehicle-treated diabetic control and 0% for vehicle-treated healthy control) in different in vivo PD models as a function of the free AUC0-24 of the active S-epimer RO6868847.
as §5

[15] = Solubility of drug substance; assay type: physicochemical
Procedure: as §4

Cn1nnnc1Cn1nnc2c(N3CC[C@H](O)C3)nc(C(C)(C)C)nc21 [RO6868847, (3S)-1-[5-tert-butyl-3-[(1-methyltetrazol-5-yl)methyl]triazolo[4,5-d]pyrimidin-7-yl]pyrrolidin-3-ol]
activity at endocannabinoid pathway enzymes [1]: no activity
agonist character at human CB2 [2]: potent, full agonist
Emax ([2]; Human): 103%
Emax ([2]; second row printed 'Human'): 101%
IC50 ([2]; Human, four independent experiments): 2.81 ± 0.28 nM
IC50 ([2]; second row printed 'Human'): 2.6 ± 0.14 nM
IC50 [3]: 0.58 ± 0.04 nM
Emax ([3]; CHO, Rats, normalized to 10 μM CP55′940): 94.7%
time dependence of pharmacokinetics ([4]; in vivo): absence of relevant PK time dependencies; also recorded: no evidence of time-dependent pharmacokinetics
time to steady state ([4]; once-daily dosing): approximately after the second day of dosing; also recorded: approximately after the second day of treatment
accumulation of Cmax and AUCtau ([4]; once-daily dosing, independent of dose): only minor accumulation
leukostasis in the eye [5]: inhibition of leukostasis in the eye
stability to temperature stress [6]: fairly stable
stability to light ([6]; solid state and solution): stable to light
IC50 ([7]; CHO cells): 1.06 ± 0.08 nM
Emax ([7]; CHO, normalized to 10 μM CP55′940): 94.6%
Ki [8]: > 10000 nM
CB1/CB2 Ratio (binding selectivity) ([8]; CB1 Ki over CB2 Ki): >195 fold
affinity for human CB1 ([8]; highest concentration of 10 μM): no affinity
activity at endocannabinoid pathway enzymes [9]: no activity
effect of food on AUCInf ([10]; 100 mg, fed vs fasted): increased only marginally
effect of food on Cmax ([10]; 100 mg, fed vs fasted): remained unaffected by food
Tmax ([10]; 100 mg, fasted state): 3 h
Tmax ([10]; 100 mg, fed state (high fat, high calorie breakfast)): 4 h
effect of food on the pharmacokinetics ([10]; overall): no relevant effect
decrease in disease marker (hyperfluorescence area) ([11]; rat, at unbound AUC0-24 2.8 ng·hr/mL): 50%
unbound AUC0-24 [S-epimer], lower bound of pharmacologically active exposure ([11]; rat, in vivo): 2.8 ng·hr/mL
retinal hyperfluorescence ([11]; rodent laser injury model): reduction of retinal hyperfluorescence
Renal excretion, share of the dose administered [12]: less than 5%
IC50 [13]: 103 ± 17.2 nM
Ki ([13]; read-out: Ki ± SE): 66.8 nM
Ki ([14]; rat): 33.3 nM
unbound AUC0-24 at in vitro rat Ki as share of upper bound of active exposure ([14]; rat): 52%
free AUC0-24 extrapolated from rat Ki ([14]; rat Ki x 24): 286 ng·h/mL
Ki ([14]; rat, converted from nM): 33.5 nM
solubility in aqueous solutions [15]: slightly soluble
solubility in organic solvents [15]: moderate to good solubility
